Tests used:
[1] = system: vector-transformed E. coli JA202; test: Uptake of radioligands into vector-transformed bacteria; format: cell-based
Description: The cultures were grown at 37 °C and 180 r.p.m. in an incubator shaker (Multitron, Infors HT). Protein expression was induced at OD600 ~0.5 by addition of IPTG to a final concentration of 0.25 mM. After 4 h, bacteria were pelleted (5,200 × g, 10 min, room temperature) and resuspended in uptake buffer (20 mM Bis-Tris propane-HCl (pH 6.7), 250 mM KCl) to a bacteria density of OD600 12. […] Furthermore, [3-3 H] propionic acid sodium salt ([^3H]propionate, American Radiolabeled Chemicals, specific activity 30 Ci/mmol), n-[2,3-3 H] butyric acid sodium salt ([^3H]butyrate, American Radiolabeled Chemicals, specific activity 120 Ci/mmol), and [1–14 C] pyruvic acid sodium salt ([^14C]pyruvate, specific activity 0.055 Ci/mmol American Radiolabeled Chemicals) were also used for transport experiments. […] Uptake experiments were performed in 2 ml reaction tubes (Eppendorf) at 30 °C under agitation (1,000 r.p.m., Thermomixer compact, Eppendorf). […] Bacteria were immediately pelleted by centrifugation (21,000 × g, 4 min, room temperature) and washed two times with 900 μl stop buffer. Finally, bacteria were lyzed in 50 μl 5% (w/v) sodium dodecylsulfate and transferred into a white 96-well plate (Optiplate, PerkinElmer). 150 µl of scintillation cocktail (MicroScint 40, PerkinElmer) were added before measuring each reaction for 2 min with a scintillation counter (TopCount NXT, PerkinElmer). For data analysis, the signal of the empty vector was subtracted from the transporter signal. […] Cpm values of each experiment were normalized with respect to the determined upper plateau value, i.e., the fitted upper plateau value corresponds to 100%. The arithmetic average of three independent experiments was calculated. Three independent and normalized pH-dependence curves were then averaged. For data analysis Prism6 (GraphPad Software) was used. The expression of SfMCT variants in E. coli JA202 (MC4100 glcA::cat lldP::kan)[15] was verified by Western blotting. Equal amounts of bacteria expressing SfMCT variants were loaded on 14% SDS/polyacrylamide gels. His-tagged transporters were detected using an anti-His5 (Qiagen, catalogue number 34660, primary antibody) at a dilution of 1:3,000 and a goat anti-mouse IgG (H + L) HRP conjugate antibody (Biorad, catalogue number 172-1011, secondary antibody) at a dilution of 1:2,500.

SfMCT R256D = biological target: T1, SfMCT R256D (Syntrophobacter fumaroxidans, UniProt A0LNN5, R256D); test: [14C]L-lactate in vivo uptake assay, mutant R256D; format: cell-based; settings: R256D versus WT
T1 construct: expressed in transfected cells; host or cells: E. coli JA202 (MC4100 glcA::cat lldP::kan), plasmid pEXT20-SfMCT-3C-10His
Description: The cultures were grown at 37 °C and 180 r.p.m. in an incubator shaker (Multitron, Infors HT). Protein expression was induced at OD600 ~0.5 by addition of IPTG to a final concentration of 0.25 mM. After 4 h, bacteria were pelleted (5,200 × g, 10 min, room temperature) and resuspended in uptake buffer (20 mM Bis-Tris propane-HCl (pH 6.7), 250 mM KCl) to a bacteria density of OD600 12. […] Furthermore, [3-3 H] propionic acid sodium salt ([^3H]propionate, American Radiolabeled Chemicals, specific activity 30 Ci/mmol), n-[2,3-3 H] butyric acid sodium salt ([^3H]butyrate, American Radiolabeled Chemicals, specific activity 120 Ci/mmol), and [1–14 C] pyruvic acid sodium salt ([^14C]pyruvate, specific activity 0.055 Ci/mmol American Radiolabeled Chemicals) were also used for transport experiments. […] Cpm values of each experiment were normalized with respect to the determined upper plateau value, i.e., the fitted upper plateau value corresponds to 100%. The arithmetic average of three independent experiments was calculated. […] His-tagged transporters were detected using an anti-His5 (Qiagen, catalogue number 34660, primary antibody) at a dilution of 1:3,000 and a goat anti-mouse IgG (H + L) HRP conjugate antibody (Biorad, catalogue number 172-1011, secondary antibody) at a dilution of 1:2,500.

MCT1 (SLC16A1) = settings: MCT1, L-lactate; cited from earlier work
MCT4 (SLC16A3) = settings: MCT4, L-lactate; cited from earlier work

T1 sequence (A0LNN5 whole entry R256D): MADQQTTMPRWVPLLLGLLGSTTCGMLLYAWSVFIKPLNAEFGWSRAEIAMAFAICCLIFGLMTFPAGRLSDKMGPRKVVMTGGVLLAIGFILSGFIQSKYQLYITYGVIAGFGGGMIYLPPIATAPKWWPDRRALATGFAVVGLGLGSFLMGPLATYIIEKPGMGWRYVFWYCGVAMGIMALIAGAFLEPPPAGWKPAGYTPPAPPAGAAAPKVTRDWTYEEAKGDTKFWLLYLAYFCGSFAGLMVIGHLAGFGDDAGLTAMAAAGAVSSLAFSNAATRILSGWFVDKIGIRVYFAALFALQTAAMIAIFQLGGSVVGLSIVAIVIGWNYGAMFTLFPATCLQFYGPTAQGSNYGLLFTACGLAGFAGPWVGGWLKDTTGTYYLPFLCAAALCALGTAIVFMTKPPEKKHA

## C[C@H](O)C(=O)O [L-lactate]
[1]; 0.1 µCi radiolabeled monocarboxylate, vector-transformed bacteria
  Uptake of radioligand by vector (cpm): 1768.33 cpm
[1]; Time 5 min
  Uptake of [14C]L-lactate by vector (cpm): 384.333 cpm
[1]; Time 10 min
  Uptake of [14C]L-lactate by vector (cpm): 605.333 cpm
[1]; Time 20 min
  Uptake of [14C]L-lactate by vector (cpm): 1203 cpm
[1]; Time 30 min
  Uptake of [14C]L-lactate by vector (cpm): 1731 cpm
[1]; Time 40 min
  Uptake of [14C]L-lactate by vector (cpm): 2474 cpm
[1]; Time 50 min
  Uptake of [14C]L-lactate by vector (cpm): 3128.67 cpm
[1]; Time 60 min
  Uptake of [14C]L-lactate by vector (cpm): 3938.67 cpm
[1]; Time 75 min
  Uptake of [14C]L-lactate by vector (cpm): 5158 cpm
[1]; Time 90 min
  Uptake of [14C]L-lactate by vector (cpm): 7311.67 cpm
SfMCT R256D
  increase of [14C]L-lactate transport: ~ 2.5 fold
MCT1 (SLC16A1)
  Km: 3 to 5 mM
MCT4 (SLC16A3)
  Km: 20 to 35 mM

From paper PMC6573034 (Nature Communications, 2019)
